The values below come from patent US20080312301A1, “Substituted N-Benzo[D]Isoxazol-3-Yl-Amine Compounds as Inhibitors of Mglur5, Serotonin (5-Ht) and Noradrenaline Receptors, and Uses Thereof” (Gruenenthal GmbH, priority 2005, published 2008).

Broadly, the inhibition is the drop in the measured response relative to a control, in per cent. The low end stands for a weak effect, the high end for a strong effect.

T2 sequence (I3LUI7 19-1212): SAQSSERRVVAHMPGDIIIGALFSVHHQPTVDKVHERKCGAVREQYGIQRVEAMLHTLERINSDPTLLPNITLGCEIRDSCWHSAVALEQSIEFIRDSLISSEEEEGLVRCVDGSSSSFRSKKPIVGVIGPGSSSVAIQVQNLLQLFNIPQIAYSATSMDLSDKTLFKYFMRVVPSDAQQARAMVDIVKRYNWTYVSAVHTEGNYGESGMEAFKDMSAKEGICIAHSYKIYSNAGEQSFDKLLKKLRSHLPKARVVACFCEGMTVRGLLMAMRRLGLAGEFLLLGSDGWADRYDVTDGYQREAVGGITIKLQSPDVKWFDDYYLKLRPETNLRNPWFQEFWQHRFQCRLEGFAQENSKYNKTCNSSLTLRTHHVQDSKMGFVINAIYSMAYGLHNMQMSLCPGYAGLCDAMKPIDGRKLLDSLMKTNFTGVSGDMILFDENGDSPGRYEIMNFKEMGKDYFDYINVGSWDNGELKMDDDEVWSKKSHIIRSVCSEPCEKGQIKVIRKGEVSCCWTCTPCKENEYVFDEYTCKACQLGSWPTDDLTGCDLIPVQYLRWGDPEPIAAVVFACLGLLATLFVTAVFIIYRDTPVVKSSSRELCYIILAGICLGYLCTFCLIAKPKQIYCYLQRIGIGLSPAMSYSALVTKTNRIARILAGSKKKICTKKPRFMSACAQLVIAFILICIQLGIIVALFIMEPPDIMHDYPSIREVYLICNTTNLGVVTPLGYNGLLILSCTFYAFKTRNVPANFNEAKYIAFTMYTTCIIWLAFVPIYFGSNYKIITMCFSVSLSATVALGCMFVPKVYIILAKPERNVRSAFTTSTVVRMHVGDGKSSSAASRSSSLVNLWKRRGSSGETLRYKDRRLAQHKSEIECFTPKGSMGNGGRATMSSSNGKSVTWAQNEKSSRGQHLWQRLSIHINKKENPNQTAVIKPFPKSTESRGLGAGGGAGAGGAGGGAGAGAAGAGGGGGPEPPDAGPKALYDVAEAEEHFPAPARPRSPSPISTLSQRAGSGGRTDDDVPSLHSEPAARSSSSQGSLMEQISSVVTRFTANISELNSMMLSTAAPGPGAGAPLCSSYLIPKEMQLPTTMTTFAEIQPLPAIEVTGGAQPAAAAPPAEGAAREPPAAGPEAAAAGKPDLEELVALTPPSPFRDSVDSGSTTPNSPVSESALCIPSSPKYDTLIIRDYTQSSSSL

In one experiment the target is T1, NA transporter (Rattus norvegicus, UniProt Q63380).
T1 construct: from tissue; host or cells: rat hypothalamus synaptosomes (P2 fraction)
T1 sequence (Q63380 1-617): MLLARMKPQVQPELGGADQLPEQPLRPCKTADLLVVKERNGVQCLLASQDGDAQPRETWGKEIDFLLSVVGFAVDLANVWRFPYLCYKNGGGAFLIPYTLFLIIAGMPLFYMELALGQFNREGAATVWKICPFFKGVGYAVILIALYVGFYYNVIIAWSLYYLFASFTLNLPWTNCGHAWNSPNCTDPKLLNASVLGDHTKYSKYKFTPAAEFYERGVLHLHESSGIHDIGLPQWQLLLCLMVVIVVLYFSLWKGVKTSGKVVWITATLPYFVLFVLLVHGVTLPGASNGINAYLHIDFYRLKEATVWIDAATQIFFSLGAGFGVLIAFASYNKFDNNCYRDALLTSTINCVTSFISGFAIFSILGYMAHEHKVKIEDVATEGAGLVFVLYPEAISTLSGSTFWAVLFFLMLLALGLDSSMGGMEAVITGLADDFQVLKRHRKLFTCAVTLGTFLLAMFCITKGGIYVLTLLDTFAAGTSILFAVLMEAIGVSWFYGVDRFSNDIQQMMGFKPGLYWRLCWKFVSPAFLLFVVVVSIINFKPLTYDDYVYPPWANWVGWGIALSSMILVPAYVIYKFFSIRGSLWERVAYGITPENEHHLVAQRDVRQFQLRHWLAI
The experiment in a line: Noradrenaline (NA) uptake inhibition in rat brain synaptosomes (hypothalamus), [3H]-NA. In kind it is biochemical.
Details: not given
An excerpt: (§1) I. Method for Determining the Noradrenaline and 5HT Uptake Inhibition:
(§2) For in vitro studies, synaptosomes were freshly isolated from rat brain areas as described in the publication “The isolation of nerve endings from brain” by E. G. Gray and V. P. Whittaker, J. Anatomy 96, pages 79-88, 1962. The corresponding literature description is introduced hereby as reference and forms part of the disclosure.
(§3) The tissue (hypothalamus for determining the noradrenaline uptake inhibition and medulla and pons for determining the 5HT uptake inhibition) was homogenized in ice-cold 0.32 M sucrose (100 mg of tissue/1 ml) in a glass homogenizer with Teflon pestle using five full up and down strokes at 840 revolutions/minute. The homogenate was centrifuged at 1000 g and at 4° C. for 10 minutes. After subsequent centrifugation at 17 000 g for 55 minutes, the synaptosomes (P2 fraction) are obtained and were resuspended in 0.32 M […] (0.5 ml/100 mg of the original weight).
(§4) The respective uptake was measured in a 96-well microtiter plate. The volume was 250 μl and incubation took place at room temperature (approx. 20-25° C.) under an O2 atmosphere.
(§5) The incubation time was 7.5 minutes for [^3H]-NA and 5 minutes for [^3H]-5-HT. The 96 samples were then filtered through a Unifilter GF/B® microtiter plate (Packard) and washed with […] of incubated buffer using a “Brabdel MPXRI-96T Cell Harvester”. The Unifilter GF/B plate was dried at 55° C. for 1 h. The plate was then sealed with a Back Seal® (Packard) and 35 μl of scintillation fluid were added per well (Ultima Gold®, Packard). After sealing with a top Seal® (Packard), the radioactivity was determined, after equilibrium had been reached (about 5 h), in a “Trilux 1450 Microbeta” (Wallac).
The following characteristic data were found for the NA transporter:
(§6) The amount of protein employed in the above determination corresponded to the value disclosed in the literature, as described for example in “Protein measurement with the folin phenol reagent”, Lowry et al., J. Biol. Chem., 193, 265-275, 1951. A detailed description of the method can also be found in the literature, for example from M. Ch. Frink, H.-H. Hennies, W. Engelberger, M. Haurand and B. Wilffert (1996) Arzneim.-Forsch./Drug Res. 46 (III), 11, 1029-1036. The corresponding literature descriptions are hereby introduced as reference and form part of the disclosure.
`CN(C)c1cccc2onc(NC(=O)C3CCCCC3)c12` [Example 73, cyclohexane-(4-dimethylaminobenzo[d]isoxazol-3-yl)carboxamide]: the “NA uptake inhibition [%] conc. 10 μM” value stood at 70%. Regarding `O=C(Nc1noc2cccc(F)c12)c1cc2ccccc2s1` [Example 12, benzo[b]thiophene-2-(4-fluorobenzo[d]isoxazol-3-yl)carboxamide], the “NA uptake inhibition [%] conc. 10 μM” value was 60%.

Staying with this experiment, now noted: conc. 10 μM.
With `O=C(Nc1noc2cc(Br)ccc12)c1ccc(F)c(F)c1` [Example 49, N-(6-bromobenzo[d]isoxazol-3-yl)-3,4-difluorobenzamide], 10 µM produced 65% inhibition.

`O=C(Nc1noc2cccc(OCC(F)(F)F)c12)c1ccc(F)c(F)c1` [Example 82, 3,4-difluoro-N-[4-(2,2,2-trifluoroethoxy)benzo[d]isoxazol-3-yl]benzamide] had an inhibition at 10 µM of 68%. The same measure, in the same setting: for `O=C(Nc1noc2cccc(OCC(F)(F)F)c12)c1ccc(F)cc1C(F)(F)F` [Example 77, 4-fluoro-N-[4-(2,2,2-trifluoroethoxy)benzo[d]isoxazol-3-yl]-2-trifluoromethyl-benzamide] the value was 70%; for `O=C(Nc1noc2cc(Cl)ccc12)c1ccc(I)cc1` [Example 40, N-(6-chlorobenzo[d]isoxazol-3-yl)-4-iodobenzamide], 61%; for `O=C(Nc1noc2cc(Cl)ccc12)c1ccc(F)c(F)c1` [Example 42, N-(6-chlorobenzo[d]isoxazol-3-yl)-3,4-difluorobenzamide], 64%. Consider `CCCc1ccc(C(=O)Nc2noc3cc(Br)ccc23)cc1` [Example 48, N-(6-bromobenzo[d]isoxazol-3-yl)-4-propylbenzamide], for which testing at 10 µM gave an inhibition of 61%.

The compound `O=C(Nc1noc2cccc(OCC(F)(F)F)c12)c1ccc(F)c(F)c1F` [Example 80, 2,3,4-trifluoro-N-[4-(2,2,2-trifluoroethoxy)benzo[d]isoxazol-3-yl]benzamide] registered an inhibition at 10 µM of 66%.

`O=C(Nc1noc2c(F)cccc12)c1ccc(I)cc1` [Example 55, N-(7-fluorobenzo[d]isoxazol-3-yl)-4-iodobenzamide]: testing at 10 µM gave an inhibition of 69%.

As for `CN(C)c1cccc2onc(NC(=O)c3cc(F)c(Cl)cc3Cl)c12` [Example 64, 2,4-dichloro-N-(4-dimethylaminobenzo[d]isoxazol-3-yl)-5-fluorobenzamide], the inhibition at 10 µM is 63%.

Another experiment addresses T2, mGluR5 receptor (Sus scrofa, UniProt I3LUI7).
T2 construct: 450 μg of protein from brain homogenate are incubated with 5 nM^3[H]-MPEP; from tissue; host or cells: pig brain hemispheres without medulla, cerebellum and pons
The experiment in a line: Affinity for the mGluR5 receptor: displacement of 3[H]-MPEP binding in pig brain homogenate. As to conditions: 10 μM compound, 5 nM 3[H]-MPEP. As for the experimental part:
II. Method for Determining the Affinity for the mGluR5 Receptor
In each case 450 μg of protein from brain homogenate are incubated with 5 nM^3[H]-MPEP (Tocris, order No. R1212) (MPEP=2-methyl-6-[…]) and the compounds to be investigated (10 μM in the assay) in buffer (as above) in 250 μl incubation mixtures in 96-well microtiter plates at room temperature for 60 min.
The filter plates were then dried at 55° C. for 60 min.
`Cc1ccccc1C(=O)Nc1noc2ccc(F)cc12` [Example 28, N-(5-fluorobenzo[d]isoxazol-3-yl)-2-methylbenzamide]: the inhibition at 10 µM amounted to 35%. In turn, `O=C(Nc1noc2cc(Br)ccc12)c1ccc(F)c(F)c1` [Example 49, N-(6-bromobenzo[d]isoxazol-3-yl)-3,4-difluorobenzamide] yielded an inhibition at 10 µM of 36.9%.

The compound `O=C(Nc1noc2cccc(OCC(F)(F)F)c12)c1ccccc1Br` [Example 36, 2-bromo-N-[4-(2,2,2-trifluoroethoxy)benzo[d]isoxazol-3-yl]benzamide] registered an inhibition at 10 µM of 30.3%. `O=C(Nc1noc2cccc(OCC(F)(F)F)c12)c1ccc(F)c(F)c1` [Example 82, 3,4-difluoro-N-[4-(2,2,2-trifluoroethoxy)benzo[d]isoxazol-3-yl]benzamide] registered an inhibition at 10 µM of 42%. As to `O=C(Nc1noc2ccc(Br)cc12)c1ccc(F)cc1F` [Example 30, N-(5-bromobenzo[d]isoxazol-3-yl)-2,4-difluorobenzamide], the inhibition at 10 µM was 45.2%.

The compound `O=C(Nc1noc2cccc(OCC(F)(F)F)c12)c1ccc(F)cc1C(F)(F)F` [Example 77, 4-fluoro-N-[4-(2,2,2-trifluoroethoxy)benzo[d]isoxazol-3-yl]-2-trifluoromethyl-benzamide] yielded an inhibition at 10 µM of 38%. Turning to `CN(C)c1cccc2onc(NC(=O)C3CCCCC3)c12` [Example 73, cyclohexane-(4-dimethylaminobenzo[d]isoxazol-3-yl)carboxamide], the “mGluR5 receptor inhibition of the 3[H]-MPEP binding in % (10 μM)” value amounted to 30.05%.

Another experiment deals with T3, 5-HT uptake (serotonin reuptake) (Rattus norvegicus, UniProt P31652).
T3 construct: from tissue; host or cells: rat medulla and pons synaptosomes (P2 fraction)
T3 sequence (P31652 whole entry): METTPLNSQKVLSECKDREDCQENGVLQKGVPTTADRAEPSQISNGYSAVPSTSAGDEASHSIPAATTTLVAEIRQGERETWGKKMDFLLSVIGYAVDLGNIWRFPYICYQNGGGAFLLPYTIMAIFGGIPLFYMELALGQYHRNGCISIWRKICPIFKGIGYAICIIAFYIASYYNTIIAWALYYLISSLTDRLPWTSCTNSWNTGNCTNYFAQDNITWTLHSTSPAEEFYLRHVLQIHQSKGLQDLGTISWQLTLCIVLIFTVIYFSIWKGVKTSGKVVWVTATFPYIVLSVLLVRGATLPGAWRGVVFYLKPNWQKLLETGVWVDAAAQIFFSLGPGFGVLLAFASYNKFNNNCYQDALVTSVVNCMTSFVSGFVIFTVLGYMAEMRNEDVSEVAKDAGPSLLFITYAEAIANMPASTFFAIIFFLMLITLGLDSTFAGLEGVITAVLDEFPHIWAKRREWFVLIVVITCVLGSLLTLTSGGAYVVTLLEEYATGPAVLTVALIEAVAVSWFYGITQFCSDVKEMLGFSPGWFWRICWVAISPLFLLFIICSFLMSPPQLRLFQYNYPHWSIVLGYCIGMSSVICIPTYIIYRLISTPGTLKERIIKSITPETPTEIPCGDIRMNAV
The experiment in a line: 5HT uptake inhibition in rat brain synaptosomes (medulla and pons), [3H]-5-HT. The format is biochemical.
Details: not given
Source text: as §1, §2, §3, §4, §5, §6
In the case of `O=C(Nc1noc2cc(Br)ccc12)c1ccccc1C(F)(F)F` [Example 23, N-(6-bromobenzo[d]isoxazol-3-yl)-2-trifluoromethyl benzamide], the “5 HT uptake inhibition [%] conc. 10 μM” value was determined as 86%. Regarding `COc1cccc2onc(NC(=O)c3cc(C(F)(F)F)cc(C(F)(F)F)c3)c12` [Example 33, N-(4-methoxybenzo[d]isoxazol-3-yl)-3,5-bistrifluoromethyl benzamide], the “5 HT uptake inhibition [%] conc. 10 μM” value stood at 85%. Same read-out and setting: with `O=C(Nc1noc2cc(F)ccc12)c1cccs1` [Example 17, thiophene-2-(6-fluorobenzo[d]isoxazol-3-yl)carboxamide] the figure was 77%; with `O=C(Nc1noc2cc(Br)ccc12)C1C2CC3CC(C2)CC1C3` (stereo not drawn) [Example 24, adamantane-2-(6-bromobenzo[d]isoxazol-3-yl)carboxamide], 79%.

The same experiment, now with this note: conc. 10 μM.
Take `CCC(C)C(=O)Nc1noc2cc(F)ccc12` (stereo not drawn) [Example 18, N-(6-fluorobenzo[d]isoxazol-3-yl)-2-methylbutyramide]: the inhibition at 10 µM turned out to be 70%. The compound `COc1cccc2onc(NC(=O)c3cc(F)cc(F)c3)c12` [Example 34, 3,5-difluoro-N-(4-methoxybenzo[d]isoxazol-3-yl)benzamide] returned an inhibition at 10 µM of 78%. The same measure, in the same setting: for `Cc1ccccc1C(=O)Nc1noc2ccc(F)cc12` [Example 28, N-(5-fluorobenzo[d]isoxazol-3-yl)-2-methylbenzamide] the value was 91%; for `CC(C)(C)c1ccc(C(=O)Nc2noc3cccc(OCC(F)(F)F)c23)cc1` [Example 38, 4-tert-butyl-N-[4-(2,2,2-trifluoroethoxy)benzo[d]isoxazol-3-yl]benzamide], 77%; for `Cc1ccc2onc(NC(=O)c3ccccc3C(F)(F)F)c2c1` [Example 31, N-(5-methylbenzo[d]isoxazol-3-yl)-2-trifluoromethylbenzamide], 69%. Compound `CN(C)c1cccc2onc(NC(=O)c3cc(C(F)(F)F)cc(C(F)(F)F)c3)c12` [Example 35, N-(4-dimethylaminobenzo[d]isoxazol-3-yl)-3,5-bistrifluoromethylbenzamide] came in with an inhibition at 10 µM of 86%. In the case of `O=C(Nc1noc2cccc(OCC(F)(F)F)c12)c1ccccc1Br` [Example 36, 2-bromo-N-[4-(2,2,2-trifluoroethoxy)benzo[d]isoxazol-3-yl]benzamide], the inhibition at 10 µM worked out at 84%. `O=C(Nc1noc2cccc(OCC(F)(F)F)c12)c1cccc(Cl)c1` [Example 37, 3-chloro-N-[4-(2,2,2-trifluoroethoxy)benzo[d]isoxazol-3-yl]benzamide] showed an inhibition at 10 µM of 90%. For `O=C(Nc1noc2ccc(F)cc12)c1ccc(Cl)c(Cl)c1` [Example 27, 3,4-dichloro-N-(5-fluorobenzo[d]isoxazol-3-yl)benzamide], the inhibition at 10 µM stood at 89%. Compound `CCC(C)C(=O)Nc1noc2cc(Br)ccc12` (stereo not drawn) [Example 25, N-(6-bromobenzo[d]isoxazol-3-yl)-2-methylbutyramide] gave an inhibition at 10 µM of 86%.

Consider `O=C(Nc1noc2ccccc12)c1cccc(F)c1F` [Example 15, N-benzo[d]isoxazol-3-yl-2,3-difluorobenzamide], for which 10 µM produced 86% inhibition. Consider `O=C(Nc1noc2ccc(F)cc12)c1ccccc1C(F)(F)F` [Example 26, N-(5-fluorobenzo[d]isoxazol-3-yl)-2-trifluoromethylbenzamide], for which the inhibition at 10 µM stood at 82%. As to `O=C(Nc1noc2ccc(Br)cc12)c1cc(C(F)(F)F)ccc1F` [Example 29, N-(5-bromobenzo[d]isoxazol-3-yl)-2-fluoro-5-trifluoromethylbenzamide], the inhibition at 10 µM is 83%.

The compound `O=C(Nc1noc2ccccc12)c1ccc(Cl)c(Cl)c1` [Example 14, N-benzo[d]isoxazol-3-yl-3,4-dichlorobenzamide] had an inhibition at 10 µM of 69%. For the compound `CC(C)(C)c1ccc(C(=O)Nc2noc3cc(Br)ccc23)cc1` [Example 21, N-(6-bromobenzo[d]isoxazol-3-yl)-4-tert-butylbenzamide], at 10 µM the inhibition was 81%. `O=C(Nc1noc2ccc(Br)cc12)c1ccc(F)cc1F` [Example 30, N-(5-bromobenzo[d]isoxazol-3-yl)-2,4-difluorobenzamide] yielded an inhibition at 10 µM of 79%.

Take `O=C(Nc1noc2ccccc12)c1ccccc1C(F)(F)F` [Example 13, N-benzo[d]isoxazol-3-yl-2-trifluoromethylbenzamide]: the inhibition at 10 µM worked out at 84%. For `CN(C)c1cccc2onc(NC(=O)c3cccc(F)c3)c12` [Example 16, N-(4-dimethylaminobenzo[d]isoxazol-3-yl)-3-fluorobenzamide], testing at 10 µM gave an inhibition of 72%. On to `COc1cccc(C(=O)Nc2noc3cc(Cl)ccc23)c1` [Example 20, N-(6-chlorobenzo[d]isoxazol-3-yl)-3-methoxybenzamide], for which the inhibition at 10 µM worked out at 77%.

`COc1ccccc1C(=O)Nc1noc2cc(Br)ccc12` [Example 22, N-(6-bromobenzo[d]isoxazol-3-yl)-2-methoxybenzamide]: at 10 µM the inhibition was 79%.
